Data on 3 molecules can be found in article PMC11737796 (PLOS ONE, 2025).

Each structure is given as a SMILES string. “And” between values parts separate entries of the source, which are not always exact repeats. Equal values may be shown once. Read-outs that look alike come from different tables or passages of the source.

The term IC50 denotes the concentration needed to halve the response being measured. A word on the Kd: it is a measure of binding affinity in units of concentration.

Series [1] has as its target T1, recombinant murine RORγt LBD (Mus musculus, UniProt P51450).
T1 construct: 10nM purified HN-AVI-GST-TCS-mRORγ(aa256-516) was mixed with
T1 sequence (P51450 256-516): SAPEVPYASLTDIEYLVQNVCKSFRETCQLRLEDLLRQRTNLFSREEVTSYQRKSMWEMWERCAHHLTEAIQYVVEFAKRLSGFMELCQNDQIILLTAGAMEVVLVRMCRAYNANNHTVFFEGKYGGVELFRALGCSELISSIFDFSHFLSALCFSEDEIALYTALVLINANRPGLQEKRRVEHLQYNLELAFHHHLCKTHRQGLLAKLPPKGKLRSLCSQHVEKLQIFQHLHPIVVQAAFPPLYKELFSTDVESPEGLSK
Briefly: Murine RORγt radioligand competition binding assay. To be noted: for Mouse ligand binding Response (%): raw points of replicate experiments. As for the experimental part: The assay was run in white/clear polystyrene flat-bottom 384-well plates (Greiner, cat. No. 781095). Assays were carried out in 40 μl reaction volumes. 0.125 μl of a fixed concentration range of test ligands dissolved in DMSO were added to assay plates using an acoustic liquid dispenser.
(§1) The raw data from the radio-ligand and co-factor recruitment assays were transformed to % effect using the equation:
(§2) Compound % effect = 100*[(X-min)/(max-min)]
(§3) where X represents the effect in the presence of test compound and max and min are the effects in presence of the maximum and minimum controls respectively.
(§4) The data was plotted to generate concentration response profiles and the concentration-response curves were fitted to the data using the non-linear regression analysis; 4 parameter logistic smart fit method in the Analyser application of the Genedata® Screener software (Genedata, Inc., Basel, Switzerland). […] Ki was calculated from the IC50 value using the equation Ki = IC50/1+[L]/Kd)
In general terms: Displacement assays read how much labelled ligand stays bound in the presence of the test substance.

For series [2], the target named is T2, recombinant human RORγt LBD (Homo sapiens, UniProt P51449).
T2 sequence (P51449 258-518): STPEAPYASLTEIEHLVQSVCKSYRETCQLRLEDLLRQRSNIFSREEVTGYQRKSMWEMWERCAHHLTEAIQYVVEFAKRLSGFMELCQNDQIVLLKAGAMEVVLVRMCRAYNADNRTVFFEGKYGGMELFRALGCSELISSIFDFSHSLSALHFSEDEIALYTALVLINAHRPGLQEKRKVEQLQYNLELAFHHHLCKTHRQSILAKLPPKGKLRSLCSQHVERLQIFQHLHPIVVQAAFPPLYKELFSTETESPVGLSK
Nature of the series: Human RORγt radioligand competition binding assay. As for the experimental part: The assay was run in white polystyrene flat-bottom 384-well plates (Greiner, cat. No. 781075). Assays were carried out in 40 μl reaction volumes. A concentration range of test ligands in 0.4 μl of DMSO were added to assay plates using an acoustic liquid dispenser. […] Test plates were incubated for 16 hours and read using a LEADseeker (GE Healthcare, USA) Multimodality imaging instrument.
as §1, §2, §3, §4

In series [3] the test system is thymic lymphomas. To be noted: rats; cited from earlier work.
For series [4], the system named is thymic lymphomas. As to conditions: mice; cited from earlier work.
Series [5] relates to thymocyte numbers. As to conditions: bi-daily administration of 10 mg/kg, after two days; cited from earlier work.
The subject of series [6] is IMQ model. To be noted: cited from earlier work.
In series [7] the test system is IL-17A production in primary human Th17 cells. Briefly: Primary human Th17 cell assay (IL-17A release). Type of series: cell-based. As for the experimental part: Peripheral blood mononuclear cells were isolated from heparin treated human whole blood from healthy donors by density gradient centrifugation. […] On day 4, supernatants were collected and IL-17A was measured using a Human IL-17A HTRF Assay kit (Cisbio/PerkinElmer, MA, USA) according to the manufacturer’s protocol.
Genedata Screener® software (Genedata, Inc., Basel, Switzerland) was used for data normalization, curve fitting and calculation of IC50 for IL-17A inhibition as well as for cell viability. Raw data from the Human IL-17A HTRF Assay and CellTiter-Glo® Luminescent Cell Viability assay was transformed to % effect according to the formula:
Compound % effect = 100*[(X-min)/(max-min)],
where X represents the effect in the presence of test compound. […] For the cell viability calculations, 2-(2,2-dicyclohexylethyl)piperidine at 10 μM was used as maximal toxicity control while DMSO was used as minimal toxicity control. A four-parameter logistic smart fit method in the Analyser application of the Genedata® Screener software was used for curve fitting of the % effect data and IC50 calculation.

Series [8] relates to mouse thymocytes. Nature of the series: Mouse thymocyte apoptosis assay ex vivo. Type of series: cell-based. As to conditions: 26 hours, AnnexinV and 7AAD staining. As for the experimental part:
The thymus from a female C57BL/6NCrl (Charles River) mouse aged around 7 weeks was dissected out after giving the mouse a lethal i.p. injection of penthobarbital. Single cell suspension of thymocytes was prepared by disrupting the thymus through a 70 μm cell strainer with the top of a sterile 5 ml syringe plunger in DPBS (without Ca/Mg). Cells were filtered through a 40 μm cell strainer and washed in serum-free media before being resuspended in complete media (RPMI1640 with L-glutamine supplemented with 10% heat inactivated foetal bovine serum (FBS) (Gibco/Invitrogen) and 50 μM 2-mercaptoethanol (Gibco/Invitrogen).
Cells were seeded at 500 000 cells/well in 96-well plates (U-bottom, cat #3799, Corning, MA, USA) in the presence of compounds or DMSO and cultured for 26 hours (37°C, 5% CO2). The thymocytes were then washed twice in cold DPBS (without Ca/Mg) and stained with APC AnnexinV (#550475, BD Pharmingen, BD Biosciences, CA, USA) and 7AAD (#559925, BD Pharmingen) in AnnexinV Binding buffer (#556454, BD Pharmingen) for 15 minutes at RT (dark) in order to separate live cells from dead, early apoptotic and late apoptotic cells when analysed on the BD Accuri C6 (BD Biosciences, CA, USA).
The compound effect on the percentage of surviving cells relative to the DMSO control were calculated using the following formula; […]

Series [9] has as its target T3, human RORα LBD (Homo sapiens, UniProt P35398).
T3 construct: 180 nM Protein (His6-tcs-hRORαLBD)
T3 sequence (P35398 272-510 limits assumed): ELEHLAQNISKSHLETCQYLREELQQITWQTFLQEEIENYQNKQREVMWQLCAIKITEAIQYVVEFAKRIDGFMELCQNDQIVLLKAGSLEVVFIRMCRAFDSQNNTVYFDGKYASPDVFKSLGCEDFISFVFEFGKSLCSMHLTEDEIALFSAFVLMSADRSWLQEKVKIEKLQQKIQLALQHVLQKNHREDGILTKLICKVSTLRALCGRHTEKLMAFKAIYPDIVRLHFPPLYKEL
Briefly: RORα co-factor recruitment assay. As to conditions: raw points; for RORa agonism Response (%): agonism mode; for RORa inverse agonism Response (%): inverse agonism mode. Type of series: biochemical. As for the experimental part:
The assay was run in black 384 well plates (Greiner: 784900). A 0.2 μl volume of a fixed concentration range of test ligands dissolved in DMSO were added to assay plates using an acoustic liquid dispenser. Two pre-mixes were prepared in falcon tubes. Pre-mix 1 comprised 180 nM Protein (His6-tcs-hRORαLBD) and 8 nM Lance Eu-W1024-anti 6xHis in assay buffer, 50 mM Hepes pH7.4, 100 mM NaCl, 0.1% (w/v) BSA, 1 mM TCEP which was incubated for 30 minutes at room temperature before dispensing 10 μl to assay plates. Then, pre-mix 2 comprising 200 nM biotinylated PGC1alpha peptide and 50 nM streptavidin APC in assay buffer, was prepared and incubated for 30 minutes at room temperature before adding 10 μl to assay plates containing test compound and premix 1. Plates were incubated at room temperature for 1 hour in the dark, prior to reading in a Pherastar multi-mode plate reader (BMG LABTECH) using HTRF filter set (ex 320 nm, em 612 and 665 nm). The FRET signal at 665 nm was divided by the signal at 612 nm and multiplied by 10,000 to generate a signal ratio value for each well.
as §1, §2, §3, §4

Series [10] in a line: Mouse plasma protein binding. Type of series: in vitro ADME. An excerpt:
Table 1 Overview of compound potencies in multiple assays. | column: 1; 2; 3; 4; 5; 6

The mark [11] stands for this setting: tritiated ligand, used for Ki calculation.

`CCS(=O)(=O)c1ccc(CC(=O)Nc2cc(-c3ccccc3COC)cs2)cc1` [2-(4-(ethylsulfonyl)phenyl)-N-(4-(2-(methoxymethyl)phenyl)thiophen-2-yl)acetamide, reference compound]: the IC50 in series [1] (the ligand that is used tritiated as radioligand, n = 3) is 123 nM; in [2] (the ligand that is used tritiated as radioligand, n = 6), 47.9 nM. For the same molecule, the values for the Kd in series [1] (setting [11]) and in series [2] (setting [11]) were 45 nM and 17 nM, respectively.
Turning to `C[C@H]1C[C@H](C(=O)O)CC[C@H]1C(=O)N1CC[C@@]2(S(=O)(=O)c3ccc(F)cc3)c3ccc(C(F)(C(F)(F)F)C(F)(F)F)cc3CC[C@@H]12` [BMS-986251], the thymic lymphomas entry in [3] and in series [4] was “thymic lymphomas” each time.
With `CC(=O)N1Cc2cc(S(C)(=O)=O)ccc2[C@@H]1C(=O)Nc1ccc(C(O)(C(F)(F)F)C(F)(F)F)cc1` [Compound 5], in series [5], the “effect on thymocyte numbers” value is given as “did not have a significant effect”. The ear thickness result in series [6] (IMQ model) was “significantly but partially reduced”. Also, in series [6] (repeated daily dosing of 15 mg/kg), the “effect in the IMQ model” value is listed as “a larger effect”. The “Mouse ligand binding Response (%)” value in [1] (-LOG10(Concentration) 5) was -100.443% and -98.9%; in series [1] (-LOG10(Concentration) 5.5) it was -97.044% and -97.709% and -95.886%; in series [1] (-LOG10(Concentration) 6) it was -90.54% and -92.979% and -82.118%; in series [1] (-LOG10(Concentration) 6.5), -75.979% and -75.927%; in series [1] (-LOG10(Concentration) 7), -66.593% and -61.493% and -41.548%; in series [1] (-LOG10(Concentration) 7.5), -41.39% and -32.816% and -24.196%. Also, the “Mouse ligand binding Response (%)” value in [1] (-LOG10(Concentration) 8) is -17.738% and -1.711% and -32.373%; in [1] (-LOG10(Concentration) 8.5), -14.117% and 14.175%; in series [1] (-LOG10(Concentration) 9) it was -4.804% and 10.02% and -17.221%; in series [1] (-LOG10(Concentration) 9.5) it was -4.804% and 5.051% and -11.899%. The “Human Th17 Response (%)” value in series [7] (-LOG10(Concentration) 6.5, single points per experiment) is -83.16% and -87.655% and -78.367% and -82.722%. Also, in series [7] (IL-17A in supernatants after 4 days), the “Human IL-17A in Th17 cells” value is given as 7.8 ± 0.2 (45). Also, the Thymocyte apoptosis in [8] is given as 6.6 ± 0.1 (4). Besides, the “RORa agonism Response (%)” value in series [9] (-LOG10(Concentration) 4.5) is 151.862%; in series [9] (-LOG10(Concentration) 5), 149.498%; in [9] (-LOG10(Concentration) 5.5), 136.244%; in series [9] (-LOG10(Concentration) 6), 110.728%; in [9] (-LOG10(Concentration) 6.5) it was 68.027%; in series [9] (-LOG10(Concentration) 7), 28.348%. In addition, the “RORa agonism Response (%)” value in series [9] (-LOG10(Concentration) 7.5) turned out to be 7.215%; in series [9] (-LOG10(Concentration) 8), 11.627%; in [9] (-LOG10(Concentration) 8.5) it was 1.827%; in series [9] (-LOG10(Concentration) 9), 1.839%. The “RORa inverse agonism Response (%)” value in [9] (-LOG10(Concentration) 4.5) is 135.32%; in [9] (-LOG10(Concentration) 5), 141.906%; in [9] (-LOG10(Concentration) 5.5), 137.911%; in series [9] (-LOG10(Concentration) 6), 125.139%; in series [9] (-LOG10(Concentration) 6.5), 92.31%; in [9] (-LOG10(Concentration) 7) it was 46.105%. Also, the “RORa inverse agonism Response (%)” value was 12.144% in series [9] (-LOG10(Concentration) 7.5), 1.673% in [9] (-LOG10(Concentration) 8), -4.289% in series [9] (-LOG10(Concentration) 8.5) and -3.197% in [9] (-LOG10(Concentration) 9). The “Mouse PPB (% unbound)” value in series [10] is 18.6 (1) %.
